T1: Bifunctional dihydrofolate reductase-thymidylate synthase (Toxoplasma gondii, UniProt Q07422)
T1 sequence (Q07422 whole entry): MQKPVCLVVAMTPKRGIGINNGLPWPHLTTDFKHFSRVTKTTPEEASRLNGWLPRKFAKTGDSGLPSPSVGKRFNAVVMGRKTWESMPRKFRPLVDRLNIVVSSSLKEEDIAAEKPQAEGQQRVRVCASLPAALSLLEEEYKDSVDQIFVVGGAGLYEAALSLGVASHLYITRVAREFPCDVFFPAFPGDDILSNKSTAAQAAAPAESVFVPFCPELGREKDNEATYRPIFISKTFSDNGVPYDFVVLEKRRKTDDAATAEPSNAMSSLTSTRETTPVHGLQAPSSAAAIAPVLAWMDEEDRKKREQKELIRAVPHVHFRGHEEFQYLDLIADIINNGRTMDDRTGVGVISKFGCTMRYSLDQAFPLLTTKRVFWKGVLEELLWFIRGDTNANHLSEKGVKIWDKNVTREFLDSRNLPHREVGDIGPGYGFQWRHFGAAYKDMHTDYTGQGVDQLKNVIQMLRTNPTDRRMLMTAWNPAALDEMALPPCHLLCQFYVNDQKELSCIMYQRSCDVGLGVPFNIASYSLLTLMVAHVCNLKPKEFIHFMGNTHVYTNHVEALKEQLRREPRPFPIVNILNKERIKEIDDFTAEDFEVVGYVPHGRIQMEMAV

T2: Dihydrofolate reductase (Homo sapiens, UniProt P00374)
T2 sequence (P00374 whole entry): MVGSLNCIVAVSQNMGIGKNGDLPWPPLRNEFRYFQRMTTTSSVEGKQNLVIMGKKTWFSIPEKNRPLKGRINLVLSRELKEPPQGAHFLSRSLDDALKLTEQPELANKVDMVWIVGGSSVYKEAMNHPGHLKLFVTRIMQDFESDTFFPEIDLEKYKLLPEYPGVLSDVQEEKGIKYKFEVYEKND

T3: Thymidylate synthase (Lactobacillus casei, UniProt P00469)
T3 sequence (P00469 whole entry): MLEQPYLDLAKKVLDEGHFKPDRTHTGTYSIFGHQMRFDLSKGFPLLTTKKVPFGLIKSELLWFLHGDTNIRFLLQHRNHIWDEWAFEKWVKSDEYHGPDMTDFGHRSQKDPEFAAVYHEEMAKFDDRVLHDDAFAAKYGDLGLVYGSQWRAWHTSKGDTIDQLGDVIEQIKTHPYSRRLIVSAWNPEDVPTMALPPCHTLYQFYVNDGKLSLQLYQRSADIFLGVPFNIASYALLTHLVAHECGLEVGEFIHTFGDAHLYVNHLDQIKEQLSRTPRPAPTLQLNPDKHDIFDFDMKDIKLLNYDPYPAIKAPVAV

T4: Dihydrofolate reductase (Escherichia coli, UniProt P0ABQ4)
T4 sequence (P0ABQ4 whole entry): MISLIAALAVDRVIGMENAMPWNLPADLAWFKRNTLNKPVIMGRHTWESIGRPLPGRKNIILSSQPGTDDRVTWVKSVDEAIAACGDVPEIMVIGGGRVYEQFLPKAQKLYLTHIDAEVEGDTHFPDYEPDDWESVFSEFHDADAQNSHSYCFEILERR

B1: Folylpolyglutamate synthase, mitochondrial (Homo sapiens), Q05932 (protein)
chain: MSRARSHLRAALFLAAASARGITTQVAARRGLSAWPVPQEPSMEYQDAVRMLNTLQTNAGYLEQVKRQRGDPQTQLEAMELYLARSGLQVEDLDRLNIIHVTGTKGKGSTCAFTECILRSYGLKTGFFSSPHLVQVRERIRINGQPISPELFTKYFWRLYHRLEETKDGSCVSMPPYFRFLTLMAFHVFLQEKVDLAVVEVGIGGAYDCTNIIRKPVVCGVSSLGIDHTSLLGDTVEKIAWQKGGIFKQGVPAFTVLQPEGPLAVLRDRAQQISCPLYLCPMLEALEEGGPPLTLGLEGEHQRSNAALALQLAHCWLQRQDRHGAGEPKASRPGLLWQLPLAPVFQPTSHMRLGLRNTEWPGRTQVLRRGPLTWYLDGAHTASSAQACVRWFRQALQGRERPSGGPEVRVLLFNATGDRDPAALLKLLQPCQFDYAVFCPNLTEVSSTGNADQQNFTVTLDQVLLRCLEHQQHWNHLDEEQASPDLWSAPSPEPGGSASLLLAPHPPHTCSASSLVFSCISHALQWISQGRDPIFQPPSPPKGLLTHPVAHSGASILREAAAIHVLVTGSLHLVGGVLKLLEPALSQ

Experiments:
[1] = Growth inhibition of MTX-resistant R30dm sublines.; format: functional, Homo sapiens
[2] = ratio of vmax to Km
[3] = target: T1, Bifunctional dihydrofolate reductase-thymidylate synthase; assay: Inhibitory concentration against Toxoplasma gondii Dihydrofolate reductase
Dihydrofolate reductase [4] = target: T2, Dihydrofolate reductase
Description: Inhibitory concentration against recombinant human (rh) Dihydrofolate reductase

Dihydrofolate reductase [5] = target: Dihydrofolate reductase (Lactobacillus casei, UniProt P00381); assay: Inhibitory concentration against Lactobacillus casei Dihydrofolate reductase; parameters: species or system Lacticaseibacillus casei
Thymidylate synthase [6] = target: Thymidylate synthase (Rattus norvegicus, UniProt P45352); assay: Inhibitory concentration against rat Thymidylate synthase (TS)
Thymidylate synthase [7] = target: Thymidylate synthase (Escherichia coli, UniProt C3SWJ7); assay: Inhibitory concentration against Escherichia coli Thymidylate synthase (TS).
CCRF-CEM = assay: Growth inhibition of CCRF-CEM human leukemia cells.; format: functional, cell-based
Thymidylate synthase [8] = target: T3, Thymidylate synthase; assay: Inhibitory concentration against Lactobacillus casei Thymidylate synthase (TS).; parameters: species or system Lacticaseibacillus casei
Dihydrofolate reductase [9] = target: T4, Dihydrofolate reductase
Description: Inhibitory concentration against Escherichia coli Dihydrofolate reductase

A253 cell line = assay: Growth inhibition of human squamous cell carcinoma A253 cells during continuous Exposure ([…]); format: functional, cell-based
FaDu [10] = assay: Growth inhibition of human squamous cell carcinoma FaDu cells during continuous Exposure ([…]); format: functional, cell-based
Thymidylate synthase [11] = target: Thymidylate synthase (Homo sapiens, UniProt P04818); assay: Inhibitory concentration against recombinant human (rh) Thymidylate synthase (TS)
[12] = Growth inhibition of MTX-resistant R1 sublines.; format: functional, Homo sapiens
[13] = Growth inhibition of MTX-resistant R2(Bos) sublines.; format: functional, Homo sapiens
FaDu [14] = assay: protection of FaDu cells from the growth inhibitory effects of the compound.; format: functional, Homo sapiens; parameters: scale not given: the % may be the effect or the level left
FaDu [15] = assay: protection of FaDu cells from the growth inhibitory effects by 50 uM of hypoxanthine (HX); format: functional, Homo sapiens; parameters: scale not given: the % may be the effect or the level left
FaDu [16] = assay: protection of FaDu cells from the growth inhibitory effects by the combination of 50 uM of hypoxanthine (HX) and 40 uM of thymidine (TdR).; format: functional, Homo sapiens; parameters: scale not given: the % may be the effect or the level left
FaDu [17] = assay: protection of FaDu cells from the growth inhibitory effects by 40 uM of thymidine (TdR).; format: functional, Homo sapiens; parameters: scale not given: the % may be the effect or the level left
Dihydrofolate reductase [18] = target: T2, Dihydrofolate reductase; assay: Inhibitory activity against Dihydrofolate reductase
FaDu [19] = assay: protection of FaDu cells from the growth inhibitory effects by combination of 50 uM of thymidine (TdR).; format: functional, Homo sapiens; parameters: scale not given: the % may be the effect or the level left
[20] = substrate: CC(Cc1coc2nc(N)nc(N)c12)c1ccc(C(=O)N[C@@H](CCC(=O)O)C(=O)O)cc1; assay: (§1) Activity as substrate for recombinant human Folyl-polyglutamate synthase (rhFPGS) relative to aminopterin.
[21] = substrate: C/C(=C/c1coc2nc(N)nc(N)c12)c1ccc(C(=O)N[C@@H](CCC(=O)O)C(=O)O)cc1.C/C(=C\c1coc2nc(N)nc(N)c12)c1ccc(C(=O)N[C@@H](CCC(=O)O)C(=O)O)cc1; assay: as §1
[22] = substrate: Nc1nc(N)c2c(CCc3ccc(C(=O)N[C@@H](CCC(=O)O)C(=O)O)cc3)coc2n1; assay: as §1
[23] = substrate: C/C(=C\c1coc2nc(N)nc(N)c12)c1ccc(C(=O)N[C@@H](CCC(=O)O)C(=O)O)cc1; assay: as §1
[24] = substrate: Nc1nc(N)c2nc(CNc3ccc(C(=O)N[C@@H](CCC(=O)O)C(=O)O)cc3)cnc2n1; assay: as §1
[25] = substrate: CC(Cc1coc2nc(N)nc(N)c12)c1ccc(C(=O)N[C@@H](CCC(=O)O)C(=O)O)cc1; assay: (§2) Activity as substrate for recombinant human Folyl-polyglutamate synthase (rhFPGS)
[26] = substrate: C/C(=C/c1coc2nc(N)nc(N)c12)c1ccc(C(=O)N[C@@H](CCC(=O)O)C(=O)O)cc1.C/C(=C\c1coc2nc(N)nc(N)c12)c1ccc(C(=O)N[C@@H](CCC(=O)O)C(=O)O)cc1; assay: as §2
[27] = substrate: C/C(=C\c1coc2nc(N)nc(N)c12)c1ccc(C(=O)N[C@@H](CCC(=O)O)C(=O)O)cc1; assay: as §2
[28] = substrate: Nc1nc(N)c2nc(CNc3ccc(C(=O)N[C@@H](CCC(=O)O)C(=O)O)cc3)cnc2n1; assay: as §2

Dihydrofolate reductase (Lactobacillus casei, UniProt P00381), sequence (P00381 whole entry): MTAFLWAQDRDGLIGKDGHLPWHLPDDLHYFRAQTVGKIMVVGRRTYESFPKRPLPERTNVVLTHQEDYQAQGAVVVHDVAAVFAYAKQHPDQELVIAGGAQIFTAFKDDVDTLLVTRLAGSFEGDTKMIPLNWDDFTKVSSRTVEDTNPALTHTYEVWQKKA
Thymidylate synthase (Escherichia coli, UniProt C3SWJ7), sequence (C3SWJ7 whole entry): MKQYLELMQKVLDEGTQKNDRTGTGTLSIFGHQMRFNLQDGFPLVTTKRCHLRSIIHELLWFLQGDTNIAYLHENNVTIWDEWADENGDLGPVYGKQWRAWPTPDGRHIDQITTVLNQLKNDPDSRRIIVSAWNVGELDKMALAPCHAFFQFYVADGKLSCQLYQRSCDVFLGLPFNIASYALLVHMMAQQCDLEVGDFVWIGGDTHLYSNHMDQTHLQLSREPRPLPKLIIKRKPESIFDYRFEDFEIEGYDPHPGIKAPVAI
Thymidylate synthase (Rattus norvegicus, UniProt P45352), sequence (P45352 whole entry): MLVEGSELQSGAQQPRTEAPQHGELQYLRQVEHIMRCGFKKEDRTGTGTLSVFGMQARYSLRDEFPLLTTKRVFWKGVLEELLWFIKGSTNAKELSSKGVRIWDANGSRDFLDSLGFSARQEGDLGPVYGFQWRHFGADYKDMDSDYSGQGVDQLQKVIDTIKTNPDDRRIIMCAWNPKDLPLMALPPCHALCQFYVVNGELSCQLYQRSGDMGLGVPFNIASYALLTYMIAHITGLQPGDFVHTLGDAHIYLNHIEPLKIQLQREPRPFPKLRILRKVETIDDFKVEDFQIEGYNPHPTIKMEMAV
Thymidylate synthase (Homo sapiens, UniProt P04818), sequence (P04818 whole entry): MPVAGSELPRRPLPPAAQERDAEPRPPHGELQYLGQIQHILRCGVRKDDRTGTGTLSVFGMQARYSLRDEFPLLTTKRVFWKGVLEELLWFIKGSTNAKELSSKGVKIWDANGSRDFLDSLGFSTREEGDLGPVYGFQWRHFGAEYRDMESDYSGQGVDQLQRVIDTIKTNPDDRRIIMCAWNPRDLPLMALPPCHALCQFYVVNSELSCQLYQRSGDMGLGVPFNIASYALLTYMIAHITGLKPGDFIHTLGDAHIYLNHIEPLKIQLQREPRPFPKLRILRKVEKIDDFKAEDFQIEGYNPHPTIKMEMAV

Molecule | EC50 [1] | Ratio [2] | IC50 [3] | IC50 (Dihydrofolate reductase [5]) | IC50 (Thymidylate synthase [6]) | IC50 (Thymidylate synthase [7]) | EC50 (CCRF-CEM) | IC50 (Thymidylate synthase [8]) | IC50 (Dihydrofolate reductase [9]) | EC50 (A253 cell line) | EC50 (FaDu [10]) | IC50 (Thymidylate synthase [11]) | EC50 [12] | EC50 [13] | also measured
Nc1nc(N)c2c(CCc3ccc(C(=O)N[C@@H](CCC(=O)O)C(=O)O)cc3)coc2n1 | 425 nM | 0.07 | – | – | – | – | – | – | – | – | – | – | – | – | –
C/C(=C\c1coc2nc(N)nc(N)c12)c1ccc(C(=O)N[C@@H](CCC(=O)O)C(=O)O)cc1 | – | 0.15 | 110000 nM | 84000 nM | > 360000 nM | > 360000 nM | 34000 nM | > 360000 nM | 11000 nM | > 10000 nM | > 10000 nM | > 360000 nM | – | – | IC50 (Dihydrofolate reductase [4]): 42000 nM
CN(Cc1coc2nc(N)nc(N)c12)c1ccc(C(=O)N[C@@H](CCC(=O)O)C(=O)O)cc1 [FURO[2,3D]PYRIMIDINE ANTIFOLATE] | 1030 nM | – | 19800 nM | 220 nM | – | – | – | > 200000 nM | – | – | – | > 200000 nM | 807 nM | – | –
Nc1nc(N)c2c(CNc3ccc(C(=O)N[C@@H](CCC(=O)O)C(=O)O)cc3)coc2n1 | 663 nM | – | 700 nM | – | – | – | – | – | – | – | – | > 200000 nM | 1520 nM | – | –
C/C(=C/c1coc2nc(N)nc(N)c12)c1ccc(C(=O)N[C@@H](CCC(=O)O)C(=O)O)cc1.C/C(=C\c1coc2nc(N)nc(N)c12)c1ccc(C(=O)N[C@@H](CCC(=O)O)C(=O)O)cc1 (mixture of isomers) | 6400 nM | 0.05 | 4400 nM | 4400 nM | > 360000 nM | > 360000 nM | 1180 nM | > 360000 nM | 1100 nM | 700 nM | 1400 nM | > 360000 nM | 32000 nM | 17000 nM | IC50 (Dihydrofolate reductase [4]): 2200 nM
Nc1nc(N)c2nc(CNc3ccc(C(=O)N[C@@H](CCC(=O)O)C(=O)O)cc3)cnc2n1 | – | 0.23 | – | – | – | – | – | – | – | – | – | – | – | – | –
CC(Cc1coc2nc(N)nc(N)c12)c1ccc(C(=O)N[C@@H](CCC(=O)O)C(=O)O)cc1 (some centres undefined) | 220 nM | – | 2100 nM | 2100 nM | > 360000 nM | 100000 nM | 29.2 nM | > 360000 nM | 1100 nM | 28.5 nM | 17.5 nM | > 360000 nM | 685 nM | 430 nM | Control (FaDu [14]): 5.75%; Control (FaDu [15]): 3.75%; Control (FaDu [16]): 105.25%; Control (FaDu [17]): 8%
Nc1nc(N)c2c(CNCc3ccc(C(=O)N[C@@H](CCC(=O)O)C(=O)O)cc3)coc2n1 | – | – | – | – | – | – | – | – | – | – | – | – | – | – | IC50 (Dihydrofolate reductase [18]): 10000 nM
CN(Cc1cnc2nc(N)nc(N)c2n1)c1ccc(C(=O)N[C@@H](CCC(=O)O)C(=O)O)cc1 [METHOTREXATE] | – | – | – | – | – | – | – | – | – | – | 11.3 nM | – | 675 nM | 1600 nM | Control (FaDu [14]): 5.75%; Control (FaDu [19]): 102%; Control (FaDu [15]): 11.25%; Control (FaDu [17]): 9.25%
B1 | – | – | – | – | – | – | – | – | – | – | – | – | – | – | Vmax [20]: 0.52; Vmax [21]: 0.56; Vmax [22]: 0.065; Vmax [23]: 0.76; Vmax [24]: 1; Km [25]: 1.2 µM; Km [26]: 10.3 µM; Km [27]: 5.3 µM; Km [28]: 4.5 µM

From ChEMBL document CHEMBL1133617, “Effect of C9-methyl substitution and C8-C9 conformational restriction on antifolate and antitumor activity of classical 5-substituted 2,4-diaminofuro[2,3-d]pyrimidines” (J Med Chem, 2000)
